# Calls of active or inactive are those of the source. For most assays here, no stated cut-off is given here; in the data, actives have a measured Kd and inactives only a lower limit.
# What was measured:
# TGF-beta receptor type-1 = molecular target: T1, TGF-beta receptor type-1 (Homo sapiens, UniProt P36897)
# T1 sequence (P36897 whole entry): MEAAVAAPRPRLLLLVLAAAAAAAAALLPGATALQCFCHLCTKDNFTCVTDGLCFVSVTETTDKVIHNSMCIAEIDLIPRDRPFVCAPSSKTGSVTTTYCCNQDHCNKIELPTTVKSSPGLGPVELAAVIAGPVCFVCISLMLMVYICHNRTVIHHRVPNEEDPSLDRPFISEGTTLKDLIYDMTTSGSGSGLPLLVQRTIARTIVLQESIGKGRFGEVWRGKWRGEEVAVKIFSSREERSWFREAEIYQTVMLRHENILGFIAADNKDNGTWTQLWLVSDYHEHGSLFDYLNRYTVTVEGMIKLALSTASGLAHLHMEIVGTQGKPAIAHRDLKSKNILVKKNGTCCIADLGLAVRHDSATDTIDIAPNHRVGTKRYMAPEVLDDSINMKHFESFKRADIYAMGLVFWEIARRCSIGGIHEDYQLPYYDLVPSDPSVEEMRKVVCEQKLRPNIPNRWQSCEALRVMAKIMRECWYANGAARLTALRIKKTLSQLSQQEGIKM
# [1] = molecular target: T2, Serine/threonine-protein kinase D3 (Homo sapiens, UniProt O94806)
# T2 sequence (O94806 whole entry): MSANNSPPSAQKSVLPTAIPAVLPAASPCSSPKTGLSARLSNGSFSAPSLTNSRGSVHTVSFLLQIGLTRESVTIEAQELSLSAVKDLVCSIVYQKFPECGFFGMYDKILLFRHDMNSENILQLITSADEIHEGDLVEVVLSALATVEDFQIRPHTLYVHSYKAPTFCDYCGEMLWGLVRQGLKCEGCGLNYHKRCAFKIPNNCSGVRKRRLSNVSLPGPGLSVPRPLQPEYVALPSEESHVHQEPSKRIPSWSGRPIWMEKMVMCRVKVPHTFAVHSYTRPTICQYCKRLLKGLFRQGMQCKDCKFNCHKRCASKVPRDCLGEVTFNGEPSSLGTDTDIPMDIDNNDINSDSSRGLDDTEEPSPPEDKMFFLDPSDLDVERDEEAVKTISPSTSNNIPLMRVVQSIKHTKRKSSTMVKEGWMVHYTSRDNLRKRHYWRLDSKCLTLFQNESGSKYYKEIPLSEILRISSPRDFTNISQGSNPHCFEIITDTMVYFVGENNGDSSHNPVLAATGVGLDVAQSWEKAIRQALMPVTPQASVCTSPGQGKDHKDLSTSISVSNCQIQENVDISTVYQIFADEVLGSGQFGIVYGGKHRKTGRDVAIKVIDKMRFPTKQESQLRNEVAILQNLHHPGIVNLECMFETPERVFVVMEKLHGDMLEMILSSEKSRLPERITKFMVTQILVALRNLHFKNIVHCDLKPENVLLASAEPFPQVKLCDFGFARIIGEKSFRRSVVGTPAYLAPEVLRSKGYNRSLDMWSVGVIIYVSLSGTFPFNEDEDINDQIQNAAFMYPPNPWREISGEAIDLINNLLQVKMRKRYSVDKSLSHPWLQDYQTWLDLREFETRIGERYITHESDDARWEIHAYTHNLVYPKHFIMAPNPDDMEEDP
# [2] = molecular target: T3, Serine/threonine-protein kinase A-Raf (Homo sapiens, UniProt P10398)
# T3 sequence (P10398 whole entry): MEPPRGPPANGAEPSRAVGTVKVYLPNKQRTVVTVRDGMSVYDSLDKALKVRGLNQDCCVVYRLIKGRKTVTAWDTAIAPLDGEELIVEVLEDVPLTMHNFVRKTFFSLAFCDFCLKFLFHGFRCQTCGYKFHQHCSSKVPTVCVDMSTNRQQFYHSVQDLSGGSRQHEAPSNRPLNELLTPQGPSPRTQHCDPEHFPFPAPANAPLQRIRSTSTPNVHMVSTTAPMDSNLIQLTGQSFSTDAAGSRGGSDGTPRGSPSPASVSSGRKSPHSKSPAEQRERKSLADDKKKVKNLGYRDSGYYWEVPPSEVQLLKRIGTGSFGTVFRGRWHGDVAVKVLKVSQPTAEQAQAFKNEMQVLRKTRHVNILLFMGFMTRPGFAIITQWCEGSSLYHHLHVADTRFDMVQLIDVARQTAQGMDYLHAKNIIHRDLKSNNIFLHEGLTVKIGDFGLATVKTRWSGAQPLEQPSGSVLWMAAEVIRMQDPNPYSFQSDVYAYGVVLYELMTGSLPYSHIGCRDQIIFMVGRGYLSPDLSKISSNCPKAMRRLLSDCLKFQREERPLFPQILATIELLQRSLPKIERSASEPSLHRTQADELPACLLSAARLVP
# [3] = molecular target: Serine/threonine-protein kinase PAK 2 (Homo sapiens, UniProt Q13177)
# Sequence of Serine/threonine-protein kinase PAK 2 (Q13177 whole entry): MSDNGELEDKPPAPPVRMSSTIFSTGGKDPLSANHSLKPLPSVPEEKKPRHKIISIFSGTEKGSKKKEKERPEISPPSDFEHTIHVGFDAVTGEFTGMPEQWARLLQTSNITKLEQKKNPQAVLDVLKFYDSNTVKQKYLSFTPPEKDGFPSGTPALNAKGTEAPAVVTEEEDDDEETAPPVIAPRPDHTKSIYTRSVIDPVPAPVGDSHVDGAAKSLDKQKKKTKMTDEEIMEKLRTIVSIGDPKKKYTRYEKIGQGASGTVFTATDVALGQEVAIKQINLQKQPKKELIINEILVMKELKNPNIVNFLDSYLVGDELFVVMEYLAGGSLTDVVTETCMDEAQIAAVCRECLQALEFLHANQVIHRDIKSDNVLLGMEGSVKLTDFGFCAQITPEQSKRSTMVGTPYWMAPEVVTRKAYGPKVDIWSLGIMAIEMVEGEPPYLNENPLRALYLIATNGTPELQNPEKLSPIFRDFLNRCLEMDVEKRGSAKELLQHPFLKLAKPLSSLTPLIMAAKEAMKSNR
# [4] = molecular target: Interleukin-1 receptor-associated kinase 1 (Homo sapiens, UniProt P51617)
# Sequence of Interleukin-1 receptor-associated kinase 1 (P51617 whole entry): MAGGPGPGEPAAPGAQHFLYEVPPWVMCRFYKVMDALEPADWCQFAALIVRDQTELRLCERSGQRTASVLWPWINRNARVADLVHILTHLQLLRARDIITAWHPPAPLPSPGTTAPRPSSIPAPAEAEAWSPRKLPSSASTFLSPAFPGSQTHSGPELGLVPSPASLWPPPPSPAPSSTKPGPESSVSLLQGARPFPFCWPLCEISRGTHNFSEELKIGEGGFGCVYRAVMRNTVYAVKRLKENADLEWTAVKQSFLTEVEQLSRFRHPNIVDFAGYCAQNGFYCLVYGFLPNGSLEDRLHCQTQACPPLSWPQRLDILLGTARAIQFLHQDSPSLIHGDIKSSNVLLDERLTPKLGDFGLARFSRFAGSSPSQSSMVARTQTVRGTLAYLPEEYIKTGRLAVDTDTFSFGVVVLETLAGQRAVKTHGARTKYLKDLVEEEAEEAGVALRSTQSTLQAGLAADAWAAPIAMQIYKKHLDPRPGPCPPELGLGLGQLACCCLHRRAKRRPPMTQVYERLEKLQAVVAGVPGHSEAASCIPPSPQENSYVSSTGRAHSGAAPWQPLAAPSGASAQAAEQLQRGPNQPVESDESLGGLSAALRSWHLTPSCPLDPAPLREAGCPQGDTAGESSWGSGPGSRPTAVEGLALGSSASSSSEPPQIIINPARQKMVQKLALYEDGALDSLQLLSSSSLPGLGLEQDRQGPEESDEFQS
# [5] = molecular target: Citron Rho-interacting kinase (Homo sapiens, UniProt O14578)
# Sequence of Citron Rho-interacting kinase (O14578 whole entry): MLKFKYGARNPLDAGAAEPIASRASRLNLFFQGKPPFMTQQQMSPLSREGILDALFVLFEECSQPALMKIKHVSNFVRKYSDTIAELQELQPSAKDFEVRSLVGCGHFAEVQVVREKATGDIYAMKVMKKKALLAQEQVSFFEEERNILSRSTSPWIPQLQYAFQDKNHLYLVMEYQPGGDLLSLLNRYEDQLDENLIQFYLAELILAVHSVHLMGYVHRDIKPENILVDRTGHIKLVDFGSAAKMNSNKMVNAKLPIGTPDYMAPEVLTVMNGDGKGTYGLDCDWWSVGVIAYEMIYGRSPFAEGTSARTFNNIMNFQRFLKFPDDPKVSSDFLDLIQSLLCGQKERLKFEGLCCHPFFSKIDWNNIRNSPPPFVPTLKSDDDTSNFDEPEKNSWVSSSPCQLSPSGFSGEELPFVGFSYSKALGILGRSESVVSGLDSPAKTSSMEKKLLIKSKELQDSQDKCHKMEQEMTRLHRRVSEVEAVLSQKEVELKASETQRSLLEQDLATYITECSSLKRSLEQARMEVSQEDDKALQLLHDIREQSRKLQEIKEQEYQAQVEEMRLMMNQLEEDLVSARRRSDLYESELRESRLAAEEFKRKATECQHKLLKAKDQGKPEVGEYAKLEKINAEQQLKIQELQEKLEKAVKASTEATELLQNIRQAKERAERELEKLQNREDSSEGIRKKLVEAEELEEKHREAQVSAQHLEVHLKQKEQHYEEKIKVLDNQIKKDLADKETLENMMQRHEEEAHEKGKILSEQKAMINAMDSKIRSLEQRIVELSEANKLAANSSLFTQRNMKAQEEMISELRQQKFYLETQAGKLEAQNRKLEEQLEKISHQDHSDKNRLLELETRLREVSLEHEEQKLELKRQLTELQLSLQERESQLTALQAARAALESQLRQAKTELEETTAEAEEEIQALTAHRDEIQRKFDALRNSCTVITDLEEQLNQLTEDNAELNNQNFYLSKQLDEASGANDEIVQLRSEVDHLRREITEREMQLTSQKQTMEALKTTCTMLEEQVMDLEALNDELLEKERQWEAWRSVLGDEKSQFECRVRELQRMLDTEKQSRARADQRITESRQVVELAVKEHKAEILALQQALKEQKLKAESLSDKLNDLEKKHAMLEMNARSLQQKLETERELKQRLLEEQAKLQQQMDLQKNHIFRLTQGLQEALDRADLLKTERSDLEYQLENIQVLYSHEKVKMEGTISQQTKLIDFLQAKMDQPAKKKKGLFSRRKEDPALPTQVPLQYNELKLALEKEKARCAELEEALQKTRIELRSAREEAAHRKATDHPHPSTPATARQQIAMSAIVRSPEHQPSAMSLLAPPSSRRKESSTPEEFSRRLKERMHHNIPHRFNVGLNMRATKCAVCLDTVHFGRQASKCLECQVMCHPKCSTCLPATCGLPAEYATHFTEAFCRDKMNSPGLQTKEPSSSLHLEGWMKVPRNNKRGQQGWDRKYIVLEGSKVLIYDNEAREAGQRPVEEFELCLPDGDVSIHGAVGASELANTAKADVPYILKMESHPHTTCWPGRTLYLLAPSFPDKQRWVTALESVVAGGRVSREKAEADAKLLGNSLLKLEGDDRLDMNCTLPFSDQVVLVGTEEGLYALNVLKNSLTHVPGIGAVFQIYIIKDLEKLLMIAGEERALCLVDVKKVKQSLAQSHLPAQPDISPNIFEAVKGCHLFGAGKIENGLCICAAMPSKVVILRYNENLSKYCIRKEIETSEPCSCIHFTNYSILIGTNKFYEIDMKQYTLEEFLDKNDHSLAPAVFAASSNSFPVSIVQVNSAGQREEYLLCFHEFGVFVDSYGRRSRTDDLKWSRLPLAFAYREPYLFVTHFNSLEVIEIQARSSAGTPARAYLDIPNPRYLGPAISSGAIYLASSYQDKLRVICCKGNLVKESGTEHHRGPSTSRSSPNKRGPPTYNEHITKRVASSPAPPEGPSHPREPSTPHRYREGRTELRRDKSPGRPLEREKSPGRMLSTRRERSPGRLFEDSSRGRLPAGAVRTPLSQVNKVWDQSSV
# [6] = molecular target: T4, Membrane-associated tyrosine- and threonine-specific cdc2-inhibitory kinase (Homo sapiens, UniProt Q99640)
# T4 sequence (Q99640 whole entry): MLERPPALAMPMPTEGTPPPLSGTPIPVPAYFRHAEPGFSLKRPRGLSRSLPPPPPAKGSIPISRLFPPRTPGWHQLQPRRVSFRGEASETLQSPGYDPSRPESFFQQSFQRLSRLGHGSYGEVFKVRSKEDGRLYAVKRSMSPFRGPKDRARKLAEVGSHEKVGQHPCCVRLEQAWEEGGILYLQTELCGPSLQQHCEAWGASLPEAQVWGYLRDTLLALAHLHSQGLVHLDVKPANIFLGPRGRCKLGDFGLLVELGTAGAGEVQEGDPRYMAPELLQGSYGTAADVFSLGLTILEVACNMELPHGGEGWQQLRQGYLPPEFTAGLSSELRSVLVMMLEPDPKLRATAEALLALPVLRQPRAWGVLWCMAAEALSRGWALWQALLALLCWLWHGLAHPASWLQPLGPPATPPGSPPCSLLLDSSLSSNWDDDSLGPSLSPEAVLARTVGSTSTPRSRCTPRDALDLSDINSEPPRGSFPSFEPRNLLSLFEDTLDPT
# [7] = molecular target: Mitogen-activated protein kinase kinase kinase 20 (Homo sapiens, UniProt Q9NYL2)
# Sequence of Mitogen-activated protein kinase kinase kinase 20 (Q9NYL2 whole entry): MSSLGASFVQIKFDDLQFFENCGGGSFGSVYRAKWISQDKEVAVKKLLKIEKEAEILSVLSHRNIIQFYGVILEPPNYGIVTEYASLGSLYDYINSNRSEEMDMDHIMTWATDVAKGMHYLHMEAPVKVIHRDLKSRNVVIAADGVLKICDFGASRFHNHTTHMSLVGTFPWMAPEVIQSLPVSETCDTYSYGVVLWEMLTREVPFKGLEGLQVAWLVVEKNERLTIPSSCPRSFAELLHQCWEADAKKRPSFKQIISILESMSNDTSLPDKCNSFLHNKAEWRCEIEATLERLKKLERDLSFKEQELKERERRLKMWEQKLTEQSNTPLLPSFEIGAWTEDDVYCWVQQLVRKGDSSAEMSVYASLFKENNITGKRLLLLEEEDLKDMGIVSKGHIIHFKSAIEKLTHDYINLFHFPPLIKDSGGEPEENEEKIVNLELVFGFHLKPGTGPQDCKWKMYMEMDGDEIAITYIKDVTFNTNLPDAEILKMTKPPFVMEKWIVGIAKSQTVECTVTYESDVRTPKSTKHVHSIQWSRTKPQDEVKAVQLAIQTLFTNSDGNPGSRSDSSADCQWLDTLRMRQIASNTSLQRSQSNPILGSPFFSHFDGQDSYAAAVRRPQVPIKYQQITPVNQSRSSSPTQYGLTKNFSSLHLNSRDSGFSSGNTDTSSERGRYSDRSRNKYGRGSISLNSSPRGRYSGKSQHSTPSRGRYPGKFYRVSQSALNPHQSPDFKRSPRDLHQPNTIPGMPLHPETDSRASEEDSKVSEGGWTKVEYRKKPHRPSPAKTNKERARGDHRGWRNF
Structure (SMILES),Kd (TGF-beta receptor type-1),Kd [1],Kd [2],Kd [3],Kd [4],Kd [5],Kd [6],Kd [7]
COc1cccc2cc(-c3nc([C@H]4CC[C@H](C(=O)O)CC4)n4ncnc(N)c34)[nH]c12 [OSI-027],0.78 µM (active),> 30 µM (inactive),> 30 µM (inactive),> 30 µM (inactive),> 30 µM (inactive),> 30 µM (inactive),> 30 µM (inactive),> 30 µM (inactive)
COCCN1CCN(Cc2ccc(-c3n[nH]c4c3C(=O)c3c(NC(=O)NN5CCOCC5)cccc3-4)cc2)CC1 [RGB-286638],> 30 µM (inactive),0.297 µM (active),> 30 µM (inactive),> 30 µM (inactive),> 30 µM (inactive),0.763 µM (active),> 30 µM (inactive),1.11 µM (active)
CC[C@@](C)(Nc1ccnc(-c2c[nH]c3ncccc23)n1)C(=O)NCC(F)(F)F [DECERNOTINIB],> 30 µM (inactive),> 30 µM (inactive),> 30 µM (inactive),> 30 µM (inactive),> 30 µM (inactive),> 30 µM (inactive),> 30 µM (inactive),> 30 µM (inactive)
CCc1cc2c(cc1N1CCC(N3CCOCC3)CC1)C(C)(C)c1[nH]c3cc(C#N)ccc3c1C2=O [ALECTINIB],> 30 µM (inactive),> 30 µM (inactive),> 30 µM (inactive),> 30 µM (inactive),> 30 µM (inactive),> 30 µM (inactive),> 30 µM (inactive),> 30 µM (inactive)
Cc1ccc(C(=O)Nc2ccc(Oc3cc4cnn(C)c4cc3-c3cn[nH]c3)c(F)c2)c(=O)n1-c1ccc(F)cc1 [MERESTINIB],> 30 µM (inactive),> 30 µM (inactive),> 30 µM (inactive),> 30 µM (inactive),> 30 µM (inactive),> 30 µM (inactive),> 30 µM (inactive),> 30 µM (inactive)
O=C(NOC[C@H](O)CO)c1ccc(F)c(F)c1Nc1ccc(I)cc1F [MIRDAMETINIB],> 30 µM (inactive),> 30 µM (inactive),> 30 µM (inactive),> 30 µM (inactive),> 30 µM (inactive),> 30 µM (inactive),> 30 µM (inactive),> 30 µM (inactive)
C=CCN(/C=C1/C(=O)O[C@H](COC)[C@@]2(C)C1=C(O)C(=O)C1=C2[C@H](OC(C)=O)C[C@]2(C)C(=O)CC[C@@H]12)CC=C [SONOLISIB],> 30 µM (inactive),> 30 µM (inactive),> 30 µM (inactive),> 30 µM (inactive),> 30 µM (inactive),> 30 µM (inactive),> 30 µM (inactive),> 30 µM (inactive)
C=CC(=O)Nc1cc(Nc2nccc(-c3cn(C)c4ccccc34)n2)c(OC)cc1N(C)CCN(C)C [OSIMERTINIB],> 30 µM (inactive),> 30 µM (inactive),> 30 µM (inactive),> 30 µM (inactive),> 30 µM (inactive),> 30 µM (inactive),> 30 µM (inactive),> 30 µM (inactive)

# Other lines, results leading:
Kd (TGF-beta receptor type-1),Kd [1],Kd [2],Kd [3],Kd [4],Kd [5],Kd [6],Kd [7],Structure (SMILES)
> 30 µM (inactive),> 30 µM (inactive),> 30 µM (inactive),> 30 µM (inactive),> 30 µM (inactive),> 30 µM (inactive),> 30 µM (inactive),> 30 µM (inactive),C=CC(=O)Nc1cccc(Nc2nc(Nc3ccc(N4CCN(C(C)=O)CC4)cc3OC)ncc2C(F)(F)F)c1 [ROCILETINIB]
> 30 µM (inactive),> 30 µM (inactive),> 30 µM (inactive),> 30 µM (inactive),> 30 µM (inactive),> 30 µM (inactive),> 30 µM (inactive),> 30 µM (inactive),COc1cc(Nc2ncc(F)c(Nc3ccc4c(n3)N(COP(=O)(O)O)C(=O)C(C)(C)O4)n2)cc(OC)c1OC [FOSTAMATINIB]
> 30 µM (inactive),0.09 µM (active),> 30 µM (inactive),> 30 µM (inactive),> 30 µM (inactive),> 30 µM (inactive),> 30 µM (inactive),> 30 µM (inactive),c1cc(OCCN2CCCCC2)cc(-c2n[nH]c3ccc(-c4nc[nH]n4)cc23)c1 [CC-401]
> 30 µM (inactive),> 30 µM (inactive),> 30 µM (inactive),> 30 µM (inactive),> 30 µM (inactive),> 30 µM (inactive),> 30 µM (inactive),> 30 µM (inactive),C[C@@H]1COC(Nc2ccc3ncnc(Nc4ccc(OCc5nccs5)c(Cl)c4)c3c2)=N1 [VARLITINIB]
> 30 µM (inactive),> 30 µM (inactive),> 30 µM (inactive),> 30 µM (inactive),> 30 µM (inactive),> 30 µM (inactive),> 30 µM (inactive),> 30 µM (inactive),COc1cc2nccc(Oc3ccc(NC(=O)C4(C(=O)Nc5ccc(F)cc5)CC4)cc3)c2cc1OC [CABOZANTINIB]
> 30 µM (inactive),> 30 µM (inactive),> 30 µM (inactive),> 30 µM (inactive),> 30 µM (inactive),> 30 µM (inactive),> 30 µM (inactive),> 30 µM (inactive),CNC(=O)c1cccc(-c2ccc3c(N4CCOC[C@@H]4C)nc(N4CCOC[C@@H]4C)nc3n2)c1 [VISTUSERTIB]
> 30 µM (inactive),> 30 µM (inactive),> 30 µM (inactive),> 30 µM (inactive),> 30 µM (inactive),> 30 µM (inactive),> 30 µM (inactive),> 30 µM (inactive),S=C(NCc1ccc2c(c1)OCO2)N1CCN(c2ncnc3c2oc2ccccc23)CC1 [AMUVATINIB]
> 30 µM (inactive),> 30 µM (inactive),> 30 µM (inactive),> 30 µM (inactive),> 30 µM (inactive),> 30 µM (inactive),> 30 µM (inactive),> 30 µM (inactive),COc1ccc(-c2ccc3ncc4c(c3c2)n(-c2ccc(N3CCNCC3)c(C(F)(F)F)c2)c(=O)n4C)cn1 [BGT-226 FREE BASE]
